Assay results from PMC10023787, “Trio-pharmacophore DNA-encoded chemical library for simultaneous selection of fragments and linkers” (Nature Communications, 2023).
Read-outs that look alike come from different tables or passages of the source.

Tests used:
[1] = target: T1, MMP-2 (Homo sapiens, UniProt P08253); test: MMP-2 inhibition assay (fluorogenic peptide substrate); format: biochemical; settings: for remaining activity (%): MMP-2; for IC50: n.d: not detected
T1 construct: purchased Sino Biological 10082-HNAH
T1 sequence (P08253 110-660): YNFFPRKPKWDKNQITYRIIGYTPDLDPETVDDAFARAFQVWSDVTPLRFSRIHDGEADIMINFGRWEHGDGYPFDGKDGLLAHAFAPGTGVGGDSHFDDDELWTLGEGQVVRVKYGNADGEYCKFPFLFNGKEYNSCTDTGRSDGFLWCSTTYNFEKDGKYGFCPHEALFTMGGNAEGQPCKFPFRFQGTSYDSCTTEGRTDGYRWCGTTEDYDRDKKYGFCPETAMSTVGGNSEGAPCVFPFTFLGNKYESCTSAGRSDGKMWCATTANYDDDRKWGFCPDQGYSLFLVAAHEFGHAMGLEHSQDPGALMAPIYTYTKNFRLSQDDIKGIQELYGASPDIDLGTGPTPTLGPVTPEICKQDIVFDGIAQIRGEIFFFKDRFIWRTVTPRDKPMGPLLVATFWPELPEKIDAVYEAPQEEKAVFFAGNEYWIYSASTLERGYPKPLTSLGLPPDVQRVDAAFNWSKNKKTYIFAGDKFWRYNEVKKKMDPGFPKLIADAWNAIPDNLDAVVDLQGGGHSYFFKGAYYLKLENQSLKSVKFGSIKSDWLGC
Protocol: (§1) The inhibition by the small molecule compounds against MMP-2/MMP-9 was measured using an assay probing the enzyme proteolytic activity on the substrate DNP-Pro-Leu-Gly-Met-Trp-Ser-Arg (Enzo Life Sciences, USA). All assays were performed in the assay buffer containing 50 mM Tris, 100 mM NaCl. 5 mM CaCl2, and 0.1% Brij 35, pH 7.5. Human proMMP-2 and proMMP-9 were purchased from Sino biological (Germany). The proMMPs were activated by 1 mM APMA in the assay buffer at 37 °C for 2 h. After activation, MMP-2 was diluted to 6.5 nM of final assay concentration, and MMP-9 was diluted by the buffer to reach 10 nM of final assay concentration. In each well, 49 μl of enzyme solution was incubated with 1 μl of compounds of series of concentration (nM-mM in DMSO) at RT for 30 min. 2 μl of the FRET substrate was added right before the measurement at a final concentration of 25 μM. The rate of hydrolysis was monitored by quantifying the emission at 360 nm (ex: 280 nm). The emission was measured with intervals of the 30 s for 30 min with Synergy H1 Plate Reader (Agilent, USA). The measurements were done in triplicate. […] Then, curves were plotted as a function of the concentration of the inhibitor against the relative enzyme activity. Vmax was derived from the detected […] signal for each concentration and logistic fitting was performed to obtain IC50 values using Origin 2019b (OriginLab).

[2] = target: T2, MMP-9 (Homo sapiens, UniProt P14780); test: MMP-9 inhibition assay (fluorogenic peptide substrate); format: biochemical; set-up: remaining enzyme activity (% of control): scale not given here; settings: for remaining enzyme activity (% of control): MMP-9; for IC50: n.d: not detected
T2 construct: purchased Sino Biological 10327-HNAH
Protocol: as §1

[3] = mean ± SE, Fig. 5d unit inferred, µM, read-out: IC50
[4] = Figure 5d, fragment combination joined by linker, read-out: MMP2 IC50
[5] = Figure 5d, fragment combination joined by linker, read-out: MMP9 IC50

T2 sequence (P14780 107-707 limits assumed): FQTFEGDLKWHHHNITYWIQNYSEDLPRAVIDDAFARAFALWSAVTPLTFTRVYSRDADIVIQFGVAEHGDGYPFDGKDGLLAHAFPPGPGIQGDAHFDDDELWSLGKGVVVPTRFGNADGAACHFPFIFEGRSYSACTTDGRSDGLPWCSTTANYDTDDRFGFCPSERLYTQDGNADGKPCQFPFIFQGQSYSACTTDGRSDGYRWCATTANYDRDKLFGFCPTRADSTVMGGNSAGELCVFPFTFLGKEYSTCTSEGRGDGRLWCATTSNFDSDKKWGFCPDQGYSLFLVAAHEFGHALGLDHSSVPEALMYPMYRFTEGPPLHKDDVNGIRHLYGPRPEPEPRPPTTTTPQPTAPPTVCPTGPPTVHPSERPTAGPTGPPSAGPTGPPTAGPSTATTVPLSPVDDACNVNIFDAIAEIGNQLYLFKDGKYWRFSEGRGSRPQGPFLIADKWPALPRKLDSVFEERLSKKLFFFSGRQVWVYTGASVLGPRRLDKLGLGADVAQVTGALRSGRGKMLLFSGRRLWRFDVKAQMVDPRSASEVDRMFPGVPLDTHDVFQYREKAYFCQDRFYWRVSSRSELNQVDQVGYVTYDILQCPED

## O=C(CNC(=O)NC12CC3CC(CC(C3)C1)C2)NCc1c[nH]nn1 [66+787 Linker 1]
[1]; concentration 0.0156 µM
  remaining activity (%): 93.33
[1]; concentration 0.08 µM
  remaining activity (%): 91.88
[1]; concentration 0.39 µM
  remaining activity (%): 89.28
[1]; concentration 1.95 µM
  remaining activity (%): 98.93
[1]; concentration 9.75 µM
  remaining activity (%): 95.17
[1]; concentration 48.76 µM
  remaining activity (%): 89.24
[1]; concentration 243.80 µM
  remaining activity (%): 91.48
[1]; concentration 1219.00 µM
  remaining activity (%): 64.77
[2]; concentration 0.08 µM
  remaining enzyme activity (% of control): 90.03
[2]; concentration 0.39 µM
  remaining enzyme activity (% of control): 107.83
[2]; concentration 1.95 µM
  remaining enzyme activity (% of control): 106.33
[2]; concentration 9.75 µM
  remaining enzyme activity (% of control): 95.98
[2]; concentration 48.76 µM
  remaining enzyme activity (% of control): 92.70
[2]; concentration 243.80 µM
  remaining enzyme activity (% of control): 85.14
[2]; concentration 1219.00 µM
  remaining enzyme activity (% of control): 78.29

## O=C(CCCCCCC(=O)NCC12CC3CC(CC(C3)C1)C2)NCc1c[nH]nn1 [66+787 Linker 4]
[1]; concentration 0.0156 µM
  remaining activity (%): 93.57
[1]; concentration 0.08 µM
  remaining activity (%): 87.26
[1]; concentration 0.39 µM
  remaining activity (%): 84.29
[1]; concentration 1.95 µM
  remaining activity (%): 79.19
[1]; concentration 9.75 µM
  remaining activity (%): 76.03
[1]; concentration 48.76 µM
  remaining activity (%): 60.10
[1]; concentration 243.80 µM
  remaining activity (%): 68.09
[1]; concentration 1219.00 µM
  remaining activity (%): 72.50
[2]; concentration 0.08 µM
  remaining enzyme activity (% of control): 101.70
[2]; concentration 0.39 µM
  remaining enzyme activity (% of control): 95.25
[2]; concentration 1.95 µM
  remaining enzyme activity (% of control): 95.00
[2]; concentration 9.75 µM
  remaining enzyme activity (% of control): 100.64
[2]; concentration 48.76 µM
  remaining enzyme activity (% of control): 91.07
[2]; concentration 243.80 µM
  remaining enzyme activity (% of control): 93.01
[2]; concentration 1219.00 µM
  remaining enzyme activity (% of control): 79.78

## O=C(CCC(=O)NCc1c[nH]nn1)NCCOCCOCCNC(=O)CNC(=O)NC12CC3CC(CC(C3)C1)C2 [66+787 Linker 10]
[1]; concentration 0.07 µM
  remaining activity (%): 89.74
[1]; concentration 0.33 µM
  remaining activity (%): 85.09
[1]; concentration 1.67 µM
  remaining activity (%): 89.74
[1]; concentration 8.34 µM
  remaining activity (%): 82.52
[1]; concentration 41.72 µM
  remaining activity (%): 81.27
[1]; concentration 208.60 µM
  remaining activity (%): 74.95
[1]; concentration 1043.00 µM
  remaining activity (%): 25.65
[1]; concentration […]
  remaining activity (%): 97.97
[1]; [3]
  IC50: 578 ± 96 µM
[2]; concentration 0.07 µM
  remaining enzyme activity (% of control): 99.26
[2]; concentration 0.33 µM
  remaining enzyme activity (% of control): 98.95
[2]; concentration 1.67 µM
  remaining enzyme activity (% of control): 95.42
[2]; concentration 8.34 µM
  remaining enzyme activity (% of control): 94.84
[2]; concentration 41.72 µM
  remaining enzyme activity (% of control): 86.90
[2]; concentration 208.60 µM
  remaining enzyme activity (% of control): 67.40
[2]; concentration 1043.00 µM
  remaining enzyme activity (% of control): 51.64

## O=C(/C=C/CCCCC(=O)NCc1c[nH]nn1)CC(=O)NCC12CC3CC(CC(C3)C1)C2 [66+787 Linker 12]
[1]; concentration 0.0111 µM
  remaining activity (%): 95.55
[1]; concentration 0.0553 µM
  remaining activity (%): 86.42
[1]; concentration 0.28 µM
  remaining activity (%): 84.28
[1]; concentration 1.38 µM
  remaining activity (%): 96.70
[1]; concentration 6.91 µM
  remaining activity (%): 90.43
[1]; concentration 34.57 µM
  remaining activity (%): 98.71
[1]; concentration 172.86 µM
  remaining activity (%): 67.90
[1]; concentration 864.30 µM
  remaining activity (%): 16.96
[1]; [3]
  IC50: 339 ± 63.3 µM
[2]; concentration 0.0553 µM
  remaining enzyme activity (% of control): 94.85
[2]; concentration 0.28 µM
  remaining enzyme activity (% of control): 91.07
[2]; concentration 1.38 µM
  remaining enzyme activity (% of control): 90.00
[2]; concentration 6.91 µM
  remaining enzyme activity (% of control): 80.21
[2]; concentration 34.57 µM
  remaining enzyme activity (% of control): 81.44
[2]; concentration 172.86 µM
  remaining enzyme activity (% of control): 37.12
[2]; concentration 864.30 µM
  remaining enzyme activity (% of control): 14.22
[2]; mean ± SE, Fig. 5e prints no unit, µM, read-out: IC50
  IC50: 115 ± 78.3 µM

## O=C(CNC(=O)NC12CC3CC(CC(C3)C1)C2)NCCSCC(=O)NCc1c[nH]nn1 [66+787 Linker 24]
[1]; concentration 0.0156 µM
  remaining activity (%): 107.17
[1]; concentration 0.08 µM
  remaining activity (%): 100.74
[1]; concentration 0.39 µM
  remaining activity (%): 89.54
[1]; concentration 1.95 µM
  remaining activity (%): 101.35
[1]; concentration 9.75 µM
  remaining activity (%): 92.40
[1]; concentration 48.76 µM
  remaining activity (%): 87.86
[1]; concentration 243.80 µM
  remaining activity (%): 72.74
[1]; concentration 1219.00 µM
  remaining activity (%): 41.09
[1]; [3]
  IC50: 861 ± 97.2 µM
[2]; concentration 0.08 µM
  remaining enzyme activity (% of control): 99.22
[2]; concentration 0.39 µM
  remaining enzyme activity (% of control): 101.28
[2]; concentration 1.95 µM
  remaining enzyme activity (% of control): 105.60
[2]; concentration 9.75 µM
  remaining enzyme activity (% of control): 109.06
[2]; concentration 48.76 µM
  remaining enzyme activity (% of control): 90.00
[2]; concentration 243.80 µM
  remaining enzyme activity (% of control): 81.70
[2]; concentration 1219.00 µM
  remaining enzyme activity (% of control): 47.95

## O=C(CCC(=O)NCc1c[nH]nn1)NCCOCCOCCNC(=O)CNC(=O)NC12CC3CC(CC(C3)C1)C2 [66_787 10]
[1]; [4]
  IC50: 578 µM

## O=C(CNC(=O)NC12CC3CC(CC(C3)C1)C2)NCCSCC(=O)NCc1c[nH]nn1 [66_787 24]
[1]; [4]
  IC50: 861 µM

## Cn1c(O)nc2cc(C(=O)NCC34CC5CC(CC(C5)C3)C4)cnc21 [66_826 1]
[2]; [5]
  IC50: 234 µM

## O=C(CNC(=O)NC12CC3CC(CC(C3)C1)C2)NCCCCCCCCNC(=O)c1cncc(O)c1 [66_828 4]
[2]; [5]
  IC50: 247 µM

## Cn1c(O)nc2cc(C(=O)NCCCCCCCCNC(=O)Cn3cnc4c(oc5ccccc54)c3=O)cnc21 [182_826 4]
[1]; [4]
  IC50: 439 µM

## Cn1c(O)nc2cc(C(=O)NCCOCCOCCNC(=O)Cn3cnc4c(oc5ccccc54)c3=O)cnc21 [182_826 10]
[2]; [5]
  IC50: 283 µM

## Cn1c(O)nc2cc(C(=O)NCCNC(=O)CSCCNC(=O)Cn3cnc4c(oc5ccccc54)c3=O)cnc21 [182_826 24]
[2]; [5]
  IC50: 281 µM
